Tests used:
[1] = test system: Pancreatic cancer (AsPC-1) cells; experiment: Xenograft model, oral ADP-ribose, tumor volume; type: in vivo, BALB/c nude mice; settings: AsPC-1 xenograft, 5 times a week, control about 3194.3
Procedure: (§1) Pancreatic cancer (AsPC-1) or kidney cancer (Caki-1) cells (1×10^7 cells) were inoculated into 5-week-old BALB/c nude mice on the back flank, and the mice were grown up to approximately 150 mm^3 of the tumor volume. Then, three concentrations of ADP-ribose were administered subcutaneously, intravenously, and orally 3 times a week. The tumor size was measured every 6 days using a digital caliper, and the changes in tumor volume were compared for each group.
Pancreatic cancer (AsPC-1) cells (1×10^7) were inoculated into 5-week-old BALB/c nude mice on the back flank, and the mice were divided into four groups: the control group (Control) and groups administered orally with 10, 40, and 80 mg/kg of ADP-ribose. When the tumors were grown to a volume of approximately 150 mm^3, each concentration of ADP-ribose was orally administered 5 times a week. The tumor size was measured using a digital caliper, and the results of changes in tumor volume were compared by the group.

Caki-1 cells = experiment: Change over time in intracellular ADP-ribose, radiation versus ADP-ribose treatment (ELISA); type: cell-based; settings: Caki-1, 16 μM ADP-ribose, even after 24 hours; after radiation back to untreated level from 8 hours
Procedure: Brain cancer (U-87MG), kidney cancer (Caki-1), pancreatic cancer (AsPC-1), or breast cancer (MDA-MB-231) cells were cultured in a 6-well plate, respectively, and the cells were divided into the untreated group, the radiation-treated group, and the ADP-ribose-treated group. Irradiation was performed using an X-Rad 320 irradiator (Precision X-ray, North Branford, CT, USA), and cancer cells were treated with a total of 1, 2, and 5 Gy at a dose rate of 300 kVp and 150 cGy/min using an X-ray beam filter composed of 12.5 mA and 2.0 mm Al, respectively. Before treatment and at 4, 8, 16, and 24 hours after treatment, the medium was removed, the cells were washed with phosphate-buffered saline, and then RIPA buffer was added and the products were left on ice for 20 minutes. After scraping the cells, the cells were put in a centrifuge tube and centrifuged for 10 minutes at 10,000 g and 4° C. The supernatant was obtained, and 1% SDS was added, and then the reaction product was boiled at 100° C. for 5 minutes and cooled on ice. The supernatant was centrifuged again at 10,000 g and 4° C. for 10 minutes to obtain the final supernatant, and ADP-ribose was quantitatively analyzed using an ELISA analysis kit (Cell Biolabs, Inc., San Diego, CA, USA). […]

AsPC-1 cells [2] = experiment: Cancer cell death verification (MTT cell viability); type: cell-based
Procedure: (§4) 3×10^3 Brain cancer (U-87MG), lung cancer (H1975), pancreatic cancer (Aspc-1), liver cancer (Hep G2), breast cancer (MDA-MB-231), colon cancer (HCT116), kidney cancer (Caki-1), gastric cancer (SNU-1) and ovarian cancer (OVCAR-3) cells were cultured in a 96-well plate under conditions of 37° C. and 5% CO2 for 24 hours, and then each cancer cell was treated with ADP-ribose at each concentration. After culturing for 24 hours under conditions of 37° C. and 5% CO2 again, 10 μl of 3-(4,5-dimethylthiazol-2-yl)-2,5-diphenyltetrazolium bromide reagent was added to each well and reacted for 1 hour. After the reaction was completed, the reagent was removed, 200 μl of dimethyl sulfoxide was added to each well, and the absorbance was measured to determine the concentration of half-lethality and maximum lethality compared to untreated cells.
3×10^3 AsPC-1 cells were cultured in a 96-well plate for 24 hours under conditions of 37° C. and 5% CO2, treated with ADP-ribose at concentrations of 0.125, 0.25, 0.5, 1, 2, 4, 8, 16, and 32 μM, respectively, and cultured again for 24 hours under conditions of 37° C. and 5% CO2. Then, 10 μl of 3-(4,5-dimethylthiazol-2-yl)-2,5-diphenyltetrazolium bromide reagent was added to each well and reacted for 1 hour. After the reaction was completed, the reagent was removed, 200 μl of dimethyl sulfoxide was added to each well, and the absorbance was measured to confirm cell viability.

AsPC-1 cells [3] = experiment: Cell death by combination treatment of ADP-ribose and radiation (MTT); type: cell-based; settings: AsPC-1, 2 μM ADP-ribose in combination with 2 Gy radiation, 24 hours, P<0.001; 2 Gy alone about 87.3%
Procedure: 3×10^3 Brain cancer (U-87MG), lung cancer (H1975), pancreatic cancer (Aspc-1), liver cancer (Hep G2), breast cancer (MDA-MB-231), colon cancer (HCT116), and kidney cancer (Caki-1) cells were cultured in a 96-well plate for 24 hours under conditions of 37° C. and 5% CO2, treated with ADP-ribose or 2 or 5 Gy radiation alone or in combination with ADP-ribose and 2 Gy radiation, and cultured for 24 hours under conditions of 37° C. and 5% CO2 again. Then, 10 μl of 3-(4,5-dimethylthiazol-2-yl)-2,5-diphenyltetrazolium bromide reagent was added to each well and reacted for 1 hour. After the reaction was completed, the reagent was removed, 200 μl of dimethyl sulfoxide was added to each well, and the absorbance was measured to compare the degree of cell death.
3×10^3 AsPC-1 cells were cultured in a 96-well plate for 24 hours under conditions of 37° C. and 5% CO2, treated with 2 μM of ADP-ribose and 2 or 5 Gy dose of radiation individually or in combination, and cultured for 24 hours under conditions of 37° C. and 5% CO2 again. Then, 10 μl of 3-(4,5-dimethylthiazol-2-yl)-2,5-diphenyltetrazolium bromide reagent was added to each well and reacted for 1 hour. After the reaction was completed, the reagent was removed, 200 μl of dimethyl sulfoxide was added to each well, and the absorbance was measured to confirm cell viability.

[4] = test system: Pancreatic cancer (AsPC-1) cells; experiment: Cell death by combination treatment with anti-cancer drug (MTT); type: cell-based; settings: Homo sapiens, ASPC1, 24 h
Procedure: 3×10^3 Brain cancer (U-87MG), lung cancer (H1975), pancreatic cancer (Aspc-1), liver cancer (Hep G2), breast cancer (MDA-MB-231), and colon cancer (HCT116) cells were cultured in a 96-well plate for 24 hours under conditions of 37° C. and 5% Ca2, respectively. […] After the treatment was terminated, the cells were cultured for 24 hours under conditions of 37° C. and 5% CO2 again, 10 μl of 3-(4,5-dimethylthiazol-2-yl)-2,5-diphenyltetrazolium bromide reagent was added to each well and reacted for 1 hour. After the reaction was completed, the reagent was removed, 200 μl of dimethyl sulfoxide was added to each well, and the absorbance was measured to compare the degree of cell death.
Then, 10 μl of 3-(4,5-dimethylthiazol-2-yl)-2,5-diphenyltetrazolium bromide reagent was added to each well and reacted for 1 hour. After the reaction was completed, the reagent was removed, 200 μl of dimethyl sulfoxide was added to each well, and the absorbance was measured to confirm cell viability.

HCT116 cells = experiment: Cancer cell death verification (MTT cell viability); type: cell-based
Procedure: as §4
3×10^3 HCT116 cells were cultured in a 96-well plate for 24 hours under conditions of 37° C. and 5% Ca2, treated with ADP-ribose at concentrations of 0.125, 0.25, 0.5, 1, 2, 4, 8, 16, and 32 μM, respectively, and cultured again for 24 hours under conditions of 37° C. and 5% CO2. Then, 10 μl of 3-(4,5-dimethylthiazol-2-yl)-2,5-diphenyltetrazolium bromide reagent was added to each well and reacted for 1 hour. After the reaction was completed, the reagent was removed, 200 μl of dimethyl sulfoxide was added to each well, and the absorbance was measured to confirm cell viability.

OVCAR-3 cells = experiment: as above; type: cell-based; settings: OVCAR-3, 32 μM ADP-ribose, 24 hours
Procedure: 3×10^3 SNU-1 or OVCAR-3 cells were cultured in a 96-well plate for 24 hours under conditions of 37° C. and 5% CO2, treated with ADP-ribose at concentrations of 32 μM, respectively, and cultured again for 24 hours under conditions of 37° C. and 5% CO2. Then, 10 μl of 3-(4,5-dimethylthiazol-2-yl)-2,5-diphenyltetrazolium bromide reagent was added to each well and reacted for 1 hour. After the reaction was completed, the reagent was removed, 200 μl of dimethyl sulfoxide was added to each well, and the absorbance was measured to confirm cell viability.

AsPC-1 cells [5] = experiment: Transwell metastasis and invasion ability of cancer cells; type: cell-based; settings: AsPC-1, 16 μM ADP-ribose
Procedure: (§2) Metastasis and invasion ability of cancer cells were analyzed by using a transwell having polycarbonate membrane filters with 8.0 μm pore size. The transwell was put into a 24-well plate. In each well, pancreatic cancer (Aspc-1) and breast cancer (MDA-MB-231) cells were seeded on the upper surface of the insert at a density of 3.5×10^5 cells per well, divided into the untreated group and ADP-ribose-treated groups, and cultured under conditions of 37° C. and 5% CO2 for 24 hours. After culturing, the transwell was carefully washed with sterile water and then placed in 100% methanol to fix the attached cells. After fixation, the cells were stained with hematoxylin and an eosin reagent to observe the cells, and the ratio of cells that permeated the upper surface of the insert and metastasized and invaded the lower surface, compared to the untreated group, was obtained.
(§3) Analysis was performed using a transwell having polycarbonate membrane filters with 8.0 μm pore size. […] After culturing, the transwell was carefully washed with sterile water and then placed in 100% methanol to fix the attached cells. After fixation, the cells were stained with hematoxylin and an eosin reagent to observe the cells.

MDA-MB-231 cells = experiment: as above; type: cell-based; settings: MDA-MB-231, 32 μM ADP-ribose
Procedure: as §2, §3

[6] = test system: Kidney cancer (Caki-1) cells; experiment: Xenograft model, intravenous ADP-ribose, tumor volume; type: in vivo, BALB/c nude mice; settings: Caki-1 xenograft, 3 times a week, control about 2074.9
Procedure: as §1
Kidney cancer (Caki-1) cells (1×10^7) were inoculated into 5-week-old BALB/c nude mice on the back flank, and the mice were divided into 4 groups: the control group (Control) and groups injected intravenously with 2, 10, and 20 mg/kg of ADP-ribose. When the tumors were grown to a volume of approximately 150 mm^3, each concentration of ADP-ribose was […] injected 3 times a week. The tumor size was measured using a digital caliper, and the results of changes in tumor volume were compared by the group.

[7] = test system: Lung cancer (H1975) cells; experiment: Cell death by combination treatment with anti-cancer drug (MTT); type: cell-based; settings: Homo sapiens, NCI-H1975; H1975, ADP-ribose 1.6 μM in combination with osimertinib 1 nM, 24 hours, P<0.001

Nc1ncnc2c1ncn2[C@@H]1O[C@H](COP(=O)(O)OP(=O)(O)OC[C@H]2O[C@@H](O)C(O)C2O)C(O)C1O (stereo partly drawn) [ADP-ribose, adenosine diphosphate ribose]
final tumor volume ([1]; 10 mg/kg oral): 1798.6 mm^3 | final tumor volume ([1]; 40 mg/kg oral): 1175.9 mm^3 | final tumor volume ([1]; 80 mg/kg oral): 1056.9 mm^3 | amount of ADP-ribose in the cells over time compared to the control group (Caki-1 cells): maintained a significant (P<0.001) increase | maximum lethal dose (concentration at which almost all cells were killed) (AsPC-1 cells [2]; AsPC-1, 24 hours, MTT): 32 µM | cancer cell growth under a microscope (AsPC-1 cells [2]; AsPC-1, ADP-ribose treated vs control, FIG. 4A): inhibited from growing and killed | IC50 (AsPC-1 cells [2]; Homo sapiens, ASPC1, 24 h, read-out: half-lethal dose (concentration at which about half of the cells were killed)): ~2 µM | survival rate of cancer cells (AsPC-1 cells [3]): about 8% | viability at 1.6 µM [4]: ~1% | maximum lethal dose (concentration at which almost all cells were killed) (HCT116 cells; HCT116, 24 hours, MTT): 32 µM | cancer cell growth under a microscope (HCT116 cells; HCT116, ADP-ribose treated vs control, FIG. 7A): inhibited from growing and killed | IC50 (HCT116 cells; Homo sapiens, HCT-116, 24 h, read-out: half-lethal dose (concentration at which about half of the cells were killed)): ~8 µM | cell death compared to the control group (OVCAR-3 cells): killed significantly | invasion and metastasis from upper to lower part of the transwell (photomicrograph) (AsPC-1 cells [5]; 24 hours, FIG. 10A): significantly inhibited | metastasis and invasion ability, quantitatively measured, compared to the control group (AsPC-1 cells [5]; P<0.001, FIG. 10B): significantly reduced | invasion and metastasis from upper to lower part of the transwell (photomicrograph) (MDA-MB-231 cells; 24 hours, FIG. 11A): significantly inhibited | metastasis and invasion ability, quantitatively measured, compared to the control group (MDA-MB-231 cells; P<0.001, FIG. 11B): significantly reduced | final tumor volume ([6]; 2 mg/kg intravenous): 706.7 mm^3 | final tumor volume ([6]; 10 mg/kg intravenous): 331.7 mm^3 | final tumor volume ([6]; 20 mg/kg intravenous): 227.2 mm^3 | viability at 1.6 µM [7]: ~0.9%
